# Tests used:
# HCT116-Cas9 = experiment: Growth suppression assay (resazurin); type: cell-based; conditions: 48 hours of incubation, hydrochloride
# Method: (§1) Breast, colon, ovarian, cervical, liver and lung carcinoma cell lines were grown in DMEM supplemented with 10% FBS, and antibiotics were cultured at 37 °C and 5% CO2. […] To obtain an oxygen concentration of 0.05%, the cells were flushed with the premixed gas continuously throughout the experiment.
# (§2) Cells were grown in 96-well plates at a density of 3000 cells per well with or without doxycycline and treated with compounds. After 48 hours of incubation the proliferative cell reagent resazurin (Thermo Fisher Scientific) was added to the cells. The degree of resazurin reduction, which reflects cell viability, was measured by microplate reader by monitoring the absorbance at 570 nm and 600 nm, according to the manufacturer.
# MCF7-Cas9 = experiment: Growth suppression assay (resazurin); type: cell-based; conditions: 48 hours of incubation, hydrochloride
# Method: as §1, §2
# MCF7 cells = experiment: Apoptosis detection by FACS (Annexin V staining); type: cell-based; conditions: 2 µM, 24h treatment
# Method: Cells were placed on 12-well plate at a density of 30000/cm^2 and treated with compounds. After 24h incubation cells were harvested by trypsinization, fixed with 70% ethanol, treated with RNase A (0.25 mg/ml) and stained with Annexin V according to manufacturer's instructions (Thermo Fisher Scientific). Samples were analyzed on a Becton Dickinson FACScan. Data were analyzed by the CellQuest software, version 3.2.1.
# To find out whether the growth suppression by 1d*HCl is due to triggering cell death by apoptosis, we performed the Annexin V-mediated staining of phosphatidylserine, exposed on surface of cells undergoing apoptotic cell death. We detected Annexin V-positive cells using FACS.
# [1] = tested on: HCT116 p53-/- and A375p53-/- cells; experiment: Growth suppression in wild type p53 versus p53-negative isogenic cells; type: cell-based; conditions: HCT116 vs HCT116 p53-/-; A375 vs A375p53-/-
# Method: as §2
# Since p53 is a major inducer of apoptosis, including ROS-induced apoptosis, we tested whether p53 plays a role in growth suppression by 1d*HCl. We used wild type p53 HCT116 cells and their isogenic p53-negative cell line HCT116 p53-/-, as well as a pair of wild type p53 A375 and p53-negative A375p53-/- melanoma cells, generated using CRISPR-Cas9, as described previously [Zhou X, Singh M, Sanz Santos G, Guerlavais V, Carvajal LA, Aivado M, Zhan Y, Oliveira MMS, Westerberg LS, Annis DA, Johnsen JI, Selivanova G. Pharmacologic activation of p53 triggers viral mimicry response thereby abolishing tumor immune evasion and promoting anti-tumor immunity Cancer Discov. ([…]), 11(12), 3090-3105]. […] This allowed us to conclude that the tumor suppression is p53 -independent. […]
# [2] = biological target: T1, recombinant purified TrxRl (Homo sapiens, UniProt Q16881); experiment: TrxR1 enzymatic activity measurement in vitro; type: biochemical; conditions: recombinant purified enzyme in vitro
# T1 construct: made in house; host or cells: Release Factor 1-depleted E. coli strain
# T1 sequence (Q16881 151-649): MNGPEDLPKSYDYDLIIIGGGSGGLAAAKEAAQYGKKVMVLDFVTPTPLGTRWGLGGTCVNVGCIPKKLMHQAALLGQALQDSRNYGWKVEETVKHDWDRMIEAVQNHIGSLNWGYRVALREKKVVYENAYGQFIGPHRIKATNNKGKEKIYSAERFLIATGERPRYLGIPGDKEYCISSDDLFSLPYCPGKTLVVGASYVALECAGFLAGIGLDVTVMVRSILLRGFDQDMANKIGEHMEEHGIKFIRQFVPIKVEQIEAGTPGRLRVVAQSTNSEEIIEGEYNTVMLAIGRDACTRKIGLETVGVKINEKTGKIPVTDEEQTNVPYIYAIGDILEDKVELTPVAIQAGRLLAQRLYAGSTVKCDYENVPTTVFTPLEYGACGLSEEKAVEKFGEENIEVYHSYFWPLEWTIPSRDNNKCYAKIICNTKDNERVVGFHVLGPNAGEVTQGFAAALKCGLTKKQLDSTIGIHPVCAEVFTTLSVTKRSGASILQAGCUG
# Method: TrxRl enzyme was recombinantly produced with high Sec contents in a specific Release Factor 1-depleted E. coli strain and purified as previously described (Arnér ESJ, Holmgren A, in Current Protocols in Toxicology, Maines M, Costa L, Reed D, Sassa S, Eds. (John Wiley & Sons, Inc., New York, 2000), pp. 7.4.1-7.4.14). TrxRl and GSR (Sigma) recombinant enzyme assays were performed in a reaction buffer containing 50 mM Tris pH 7.5 with 2 mM EDTA and 0.1 mg/mL bovine serum albumin as described previously (Arnér ESJ, Holmgren A, in Current Protocols in Toxicology, Maines M, Costa L, Reed D, Sassa S, Eds. (John Wiley & Sons, Inc., New York, 2000), pp. 7.4.1-7.4.14). Briefly, assays were performed in triplicate using 96-well plates, with activity inferred from absorbance changes using a Spectra Max plate reader. Results of recombinant enzyme assays were normalized to DMSO and to no enzyme controls.
# We used recombinant purified TrxRl and GR in an in vitro assay as described in methods section.
# γH2AX = experiment: DNA damage detection by Western blot (phosphorylated histone H2AX); type: cell-based; conditions: HCT116 and MCF7
# Method: (§3) The extraction of total cell lysates and western blot were performed according to standard procedure. The antibodies used for immunoblotting were: p53 (sc-126, Santa Cruz Biotechnology), γH2AX (#07-164, Millipore), TrxRl 19A1 (AbFrontier). Anti-β-actin monoclonal antibody (Millipore) was used as loading control. The horseradish peroxidase-coupled secondary antibodies (Jackson ImmunoResearch) and SuperSignal™ West Dura Extended Duration Substrate detection system (Thermo Fischer Scientific), and images were visualized using ChemiDoc Imaging System (Bio-Rad).
# (§4) The majority of chemotherapeutic drugs used currently in the clinic, are DNA damaging drugs. Induction of DNA damage is a very efficient way of elimination of cancer cells. Unfortunately, these drugs induce DNA damage also in normal cells, leading to severe side effects. We addressed the question whether 1d*HCl induces DNA damage. We tested this by detection of a hallmark of DNA damage, induction of phosphorylated histone H2AX, so called γH2AX. We used anti-yH2AX antibody to detect it in cells treated with 1d*HCl.
# p53 = p53 induction by Western blot; type: cell-based; conditions: sign of DNA damage
# Method: as §3, §4
# cancer cells = experiment: Cell growth assay in combination with BSO; type: cell-based
# Method: Further, we tested whether the inhibition of GR by BSO will have additive effect with 1d*HCl. If 1d*HCl mechanism of action includes inhibition of GR, BSO will not have an additive effect. We used a range of concentrations of 1d*HCl and BSO in cell growth assays.
# Next, we tested whether the prevention of oxidative stress by NAC will affect the growth suppression by the combination of 1d*HCl and BSO. In the presence of NAC we observed the additive effect of 1d*HCl with 50 µM BSO only at twice higher dose of 1d*HCl - 10 µM.
compound,measurement,setting,value
"Cl.N#Cc1c(-c2cccnc2)[n+]([O-])c2cc(F)c(N3CCOCC3)cc2[n+]1[O-] [1d*HCl, 6-Fluoro-7-(morpholin-4-yl)-3-(pyridin-3-yl)quinoxaline-2-carbonitrile-1,4-dioxide hydrochloride]",IC50,HCT116-Cas9,0.69 µM
same,IC50,MCF7-Cas9,1.6 µM
same,Annexin V-positive cells,MCF7 cells,induced Annexin V-positive cells statistically significantly
same,growth suppression in the absence of p53,[1],not affected in the absence of p53
same,enzymatic activity of TrxRl,[2],efficiently inhibited the enzymatic activity of TrxRl in a dose- and time-dependent manner
same,induction of γH2AX,γH2AX,negligible
same,induction of p53,p53,did not detect a significant induction of p53
same,effect of combination with BSO on cell growth,cancer cells; 5 µM 1d*HCl with 50 µM BSO,have an additive effect and completely eradicated cancer cells
same,dose of 1d*HCl at which additive effect with 50 µM BSO is observed,cancer cells; in the presence of NAC,10 µM
